{"source": "ChEMBL document CHEMBL1144381", "about": "“Synthesis and antimycobacterial activity of ferrocenyl ethambutol analogues and ferrocenyl diamines” (2005)", "data": [{"system": "Mycobacterium tuberculosis", "experiment": "In vitro minimum inhibitory concentration measured against Mycobacterium tuberculosis H37Rv strain", "type": "functional", "units": {"MIC": "µg/mL"}, "values": [{"compound": "c1ccc(CNCCNCc2ccccc2)cc1", "MIC": "> 64"}, {"compound": "(cyclopenta-1,3-dien-1-ylmethyl)(hexyl)amine (cyclopenta-1,3-dien-1-ylmethyl)(methyl)amine bis(cyclopenta-1,3-diene) diiron", "MIC": 32}, {"compound": "(1S)-2-({[6-({[(5R)-5-hydroxycyclopenta-1,3-dien-1-yl]methyl}amino)hexyl]amino}methyl)cyclopenta-2,4-dien-1-ol bis(cyclopenta-1,3-diene) diiron", "MIC": "> 64"}, {"compound": "(cyclopenta-1,3-dien-1-ylmethyl)({4-[(cyclopenta-1,3-dien-1-ylmethyl)amino]butyl})amine bis(cyclopenta-1,3-diene) diiron", "MIC": 32}, {"compound": "(cyclopenta-1,3-dien-1-ylmethyl)({3-[(cyclopenta-1,3-dien-1-ylmethyl)amino]propyl})amine bis(cyclopenta-1,3-diene) diiron", "MIC": 8}, {"compound": "(1S)-2-({[4-({[(5R)-5-hydroxycyclopenta-1,3-dien-1-yl]methyl}amino)butyl]amino}methyl)cyclopenta-2,4-dien-1-ol bis(cyclopenta-1,3-diene) diiron", "MIC": "> 64"}, {"compound": "(cyclopenta-1,3-dien-1-ylmethyl)({2-[(cyclopenta-1,3-dien-1-ylmethyl)amino]ethyl})amine bis(cyclopenta-1,3-diene) diiron", "MIC": 8}]}]}
